Experimental data published in US20050123571A1, “Modulation of apoptosis” (priority 2003, published 2005).
Where a SMILES comes first, the peptide text is derived from it. The star is where a group is joined. Cbz = O=C(OCc1ccccc1)*; CH2F = FC*

Columns and labels:
[1] = tested on: Ian4−/− BBDP T cells; assay: Mitochondrial membrane potential (Δψm) by MitoLight flow microfluorometry; type: cell-based, rat; conditions: control incubation with uncoupler, 50 μM, 15 minutes, 37° C.; positive control for dissipation of Δψm
Method: Flat bottom 6-well culture plates (Falcon, Franklin Lakes, N.J.) were incubated with 10 μg/well anti-CD3 mAb, 10 μg/well anti-CD28 mAb, or both, in PBS at 4° C. After overnight incubation, plates were rinsed three times with PBS. Nylon wool-purified T cells were cultured in antibody-coated wells at 6×10^6 cells/well in 3 ml complete AIM-V media (AIM-V plus 55 μM 2-mercaptoethanol, Sigma) for 17, 40, or 68 hr in a humidified incubator at 37° C. with 5% CO2. Un-stimulated cells were incubated in complete AIM-V alone. Mitochondrial membrane potential (Δψm) of thymocytes and T cells was measured by two- or three-color flow microfluorometry using MitoLight™ (Chemicon, Temecula, Calif.) alone or in combination with biotin-conjugated anti-αβTCR mAb. Mitolight™ was employed according to the manufacturer's instructions. It is a lipophilic cation with a cellular distribution similar to that of JC-1. […] When the concentration of JC-1 reaches a threshold, it forms aggregate, causing a shift in its absorbed and emitted fluorescence (S. T. Smiley et al., Proc. Natl. Acad. Sci. U.S.A 88, 3671-3675 (1991)). […] For each experiment control and BBDP T cells were analyzed for both red and green fluorescence after Mitolight™ labeling. […] For each analysis, a minimum of 10,000 events was analyzed.

[2] = tested on: Lymph node T cells from BBDP rats; assay: Caspase inhibition, sub-diploid DNA; type: cell-based, rat; conditions: 17 hr of culture, varying concentrations
Method: The percentage of T cells with sub-diploid DNA was measured as described (I. Nicoletti, G. Migliorati, M. C. Pagliacci, F. Grignani, C. Riccardi, J. Immunol. Methods 139, 271-279 (1991)). Briefly, freshly isolated or in vitro stimulated lymph node T cells were washed twice with PBS and centrifuged at 1500 rpm for 5 min. Pellets (2×10^6) were resuspended in 200 μl of PBS, fixed in 70% cold ethanol, and stored at 4° C. until used. At the time of analysis, cells were washed twice with PBS and incubated at 25° C. for 40 min in 500 μl of PBS containing 0.1% Triton X-100 and 50 μg of RNase (Boehringer Mannheim, Indianapolis, Ind.). Propidium iodide (10 μg, Sigma, St. Louis, Mo.) was added, and the suspension was incubated in the dark for 15 min. DNA content was determined by flow microfluorometry using a FACStarR® instrument (Becton Dickinson, San Jose, Calif.). Lymphoid cells were identified electronically by their forward and side light-scatter characteristics. For each analysis, a minimum of 10,000 events was analyzed.
Lymph node T cells from BBDP rats were prepared as described above and cultured in AIM-V medium in the presence or absence of varying concentrations of the caspase inhibitors Z-VAD-FMK, Z-VDVAD, Z-DEVD, D-IETD, and Z-LEHD obtained from R&D Systems (Minneapolis, Minn.). […] Cells were then harvested, and the percentage of cells with sub-diploid DNA was determined as above.

Compound | percentage of T cells with high Δψm [1] [%] | apoptosis of Ian4−/− T cells (percentage of cells with sub-diploid DNA) [2]
N#CC(C#N)=NNc1cccc(Cl)c1 [CCCP, carbonyl cyanide m-chlorophenyl-hydrazone] | ~4 | –
COC(=O)C[C@H](NC(=O)[C@H](C)NC(=O)[C@@H](NC(=O)OCc1ccccc1)C(C)C)C(=O)CF [Z-VAD-frnk] (Cbz-Val-Ala-Asp(OMe)-CH2F) | – | prevented apoptosis
